Data taken from patent US11440903B2, “Salt form and crystal form of compound as FGFR4 inhibitor and preparation method thereof” (GUANGDONG ZHONGSHENG PHARMACEUTICAL CO., LTD, priority 2017, dated 2022).

Assay: Stability of the crystal form on stirring as suspension in solvent (40° C., 2 days)
Assay type: physicochemical
Details: stirring in methanol at 40° C. for 2 days
Procedure, shortened: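 Suspensions of compound in acetonitrile-water (1:1), ethyl acetate, methanol or ethanol stirred in the dark at 40° C. for 2 days, centrifuged, solids vacuum-dried at 30° C. overnight (room temperature for formula (II)). Some samples first dissolved under ultrasound and partly evaporated. Resulting crystal form identified by XRPD, with DSC and TGA.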

SMILES: C=CC(=O)N[C@H]1COC[C@H]1Nc1ncc(/C=C(\F)c2c(Cl)c(OC)cc(OC)c2Cl)cn1 [Crystal Form B]
- stability in the methanol solution: substantially high stability

SMILES: C=CC(=O)N[C@H]1COC[C@H]1Nc1ncc(/C=C(\F)c2c(Cl)c(OC)cc(OC)c2Cl)cn1.CS(=O)(=O)O [Crystal Form E]
- stability in the methanol solution: substantially high stability
